Reference: ChEMBL document CHEMBL4251581, “Synthesis and antimycobacterial activity of triterpeni≿ A-ring azepanes” (Eur J Med Chem, 2018)
In brackets after ≈: the same amount, converted by molar mass.

Experiments:
Format in all cases: functional
[1] = test system: Mycobacterium tuberculosis; assay: Antimycobacterial activity against isoniazid-resistant Mycobacterium tuberculosis H37Rv INH-R1 harboring katG Y155 truncated mutant
[2] = test system: Mycobacterium tuberculosis; assay: Antimycobacterial activity against rifampicin-resistant Mycobacterium tuberculosis H37Rv RIF-R1 harboring rpoB S522L mutant
[3] = test system: Mycobacterium tuberculosis; assay: Antimycobacterial activity against isoniazid-resistant Mycobacterium tuberculosis H37Rv ATCC 35822 INH-R2
[4] = test system: Mycobacterium tuberculosis; assay: Antimycobacterial activity against fluoroquinolone-resistant Mycobacterium tuberculosis H37Rv FQ-R1 harboring unidentified mutation
[5] = test system: Mycobacterium tuberculosis; assay: Antimycobacterial activity against rifampicin-resistant Mycobacterium tuberculosis H37Rv ATCC 35828 RIF-R2
[6] = test system: Mycobacterium tuberculosis; assay: Antimycobacterial activity against ethionamide-resistant Mycobacterium tuberculosis H37Rv ATCC 35830
[7] = test system: Mycobacterium tuberculosis; assay: Antimycobacterial activity against streptomycin-resistant Mycobacterium tuberculosis H37Rv ATCC 35820
[8] = test system: Mycobacterium tuberculosis; assay: Antimycobacterial activity against isoniazid-resistant Mycobacterium tuberculosis H37Rv ATCC 35822
[9] = test system: Mycobacterium tuberculosis; assay: Antimycobacterial activity against ethambutol-resistant Mycobacterium tuberculosis H37Rv ATCC 35837
[10] = test system: Mycobacterium tuberculosis; assay: Antimycobacterial activity against kanamycin-resistant Mycobacterium tuberculosis H37Rv ATCC 3582
[11] = test system: Mycobacterium tuberculosis; assay: Antimycobacterial activity against rifampicin-resistant Mycobacterium tuberculosis H37Rv ATCC 35828
[12] = test system: Mycobacterium tuberculosis; assay: Antimycobacterial activity against ofloxacin-resistant Mycobacterium tuberculosis H37Rv ATCC 35828
[13] = test system: Mycobacterium tuberculosis; assay: Antimycobacterial activity against streptomycin-resistant Mycobacterium tuberculosis H37Rv ATCC 35820 by microplate alamar blue assay

Q: What does the source list for CC1(C)CC[C@]2(COC(=O)/C=C/c3ccccc3)CC[C@]3(C)C(=CC[C@@H]4[C@@]5(C)CCCNC(C)(C)[C@@H]5CC[C@]43C)[C@H]2C1?
A: MIC [1]: 13 µg/mL (≈ 22.7 µM); MIC [2]: 7.4 µg/mL (≈ 12.9 µM); MIC [3]: 12 µg/mL (≈ 21 µM); MIC [4]: 13 µg/mL (≈ 22.7 µM); MIC [5]: 14 µg/mL (≈ 24.5 µM)

Q: Which results are given for C=C(C)[C@@H]1CC[C@]2(CO)CC[C@]3(C)[C@H](CC[C@@H]4[C@@]5(C)CCCNC(C)(C)[C@@H]5CC[C@]43C)[C@@H]12?
A: MIC [6]: 10 µg/mL (≈ 22.6 µM); MIC [7]: 5 µg/mL (≈ 11.3 µM); MIC [8]: 5 µg/mL (≈ 11.3 µM); MIC [9]: 5 µg/mL (≈ 11.3 µM); MIC [10]: 10 µg/mL (≈ 22.6 µM)

Q: COc1ccc(/C=C/C(=O)OC[C@]23CC[C@@H](C)[C@H](C)[C@@H]2C2=CC[C@@H]4[C@@]5(C)CCCNC(C)(C)[C@@H]5CC[C@@]4(C)[C@]2(C)CC3)cc1 was tested. Which MIC [1] did it give?
A: 20 µg/mL (≈ 33.2 µM)

Q: What about the MIC [2] of the same molecule?
A: 24 µg/mL (≈ 39.9 µM)

Q: What about the MIC [3] of the same molecule?
A: 17 µg/mL (≈ 28.2 µM)

Q: What about the MIC [4] of the same molecule?
A: 20 µg/mL (≈ 33.2 µM)

Q: And the MIC [5]?
A: 21 µg/mL (≈ 34.9 µM)

Q: With C[C@H]1[C@H](C)CC[C@]2(CO)CC[C@]3(C)C(=CC[C@@H]4[C@@]5(C)CCCNC(C)(C)[C@@H]5CC[C@]43C)[C@@H]12 as the molecule, how does the MIC [1] read?
A: 37 µg/mL (≈ 83.8 µM)

Q: What about the MIC [2] of the same molecule?
A: 29 µg/mL (≈ 65.6 µM)

Q: What about the MIC [3] of the same molecule?
A: 39 µg/mL (≈ 88.3 µM)

Q: And the MIC [4]?
A: 34 µg/mL (≈ 77 µM)

Q: What about the MIC [5] of the same molecule?
A: 51 µg/mL (≈ 115 µM)

Q: Which results are given for C=C(C)[C@@H]1CC[C@]2(COC(=O)CCC(=O)O)CC[C@]3(C)[C@H](CC[C@@H]4[C@@]5(C)CCCNC(C)(C)[C@@H]5CC[C@]43C)[C@@H]12?
A: MIC [11]: 6 µg/mL (≈ 11.1 µM); MIC [12]: 6 µg/mL (≈ 11.1 µM); MIC [8]: 12 µg/mL (≈ 22.1 µM)

Q: For C[C@H]1[C@H](C)CC[C@]2(COC(=O)/C=C/c3ccccc3)CC[C@]3(C)C(=CC[C@@H]4[C@@]5(C)CCCNC(C)(C)[C@@H]5CC[C@]43C)[C@@H]12, which MIC [1] is on record?
A: 28 µg/mL (≈ 49 µM)

Q: What about the MIC [2] of the same molecule?
A: 19 µg/mL (≈ 33.2 µM)

Q: And the MIC [3]?
A: 15 µg/mL (≈ 26.2 µM)

Q: And the MIC [4]?
A: 27 µg/mL (≈ 47.2 µM)

Q: And the MIC [5]?
A: 24 µg/mL (≈ 42 µM)

Q: Which results are given for C=C(C)[C@@H]1CC[C@]2(COC(=O)/C=C/c3ccccc3)CC[C@]3(C)[C@H](CC[C@@H]4[C@@]5(C)CCCNC(C)(C)[C@@H]5CC[C@]43C)[C@@H]12?
A: MIC [11]: 1 µg/mL (≈ 1.75 µM); MIC [12]: 1 µg/mL (≈ 1.75 µM); MIC [8]: 4 µg/mL (≈ 6.99 µM)

Q: Which results are given for CC1(C)CC[C@]2(CO)CC[C@]3(C)C(=CC[C@@H]4[C@@]5(C)CCCNC(C)(C)[C@@H]5CC[C@]43C)[C@H]2C1?
A: MIC [1]: 34 µg/mL (≈ 77 µM); MIC [2]: 39 µg/mL (≈ 88.3 µM); MIC [3]: 15 µg/mL (≈ 34 µM); MIC [4]: 44 µg/mL (≈ 99.6 µM); MIC [5]: 69 µg/mL (≈ 156 µM)

Q: NNC(=O)c1ccncc1 [ISONIAZID] was tested. Which MIC [1] did it give?
A: >200 µg/mL

Q: And the MIC [2]?
A: 1.2 µg/mL (≈ 8.75 µM)

Q: What about the MIC [11] of the same molecule?
A: 0.02 µg/mL (≈ 0.146 µM)

Q: And the MIC [3]?
A: 1.4 µg/mL (≈ 10.2 µM)

Q: And the MIC [4]?
A: 29 µg/mL (≈ 211 µM)

Q: What about the MIC [5] of the same molecule?
A: 1.3 µg/mL (≈ 9.48 µM)

Q: How did the MIC [1] turn out when CO[C@H]1/C=C/O[C@@]2(C)Oc3c(C)c(O)c4c(O)c(c(/C=N/N5CCN(C)CC5)c(O)c4c3C2=O)NC(=O)/C(C)=C\C=C\[C@H](C)[C@H](O)[C@@H](C)[C@@H](O)[C@@H](C)[C@H](OC(C)=O)[C@@H]1C [RIFAMPIN] was run?
A: 0.015 µg/mL (≈ 0.0182 µM)

Q: What about the MIC [2] of the same molecule?
A: 0.29 µg/mL (≈ 0.352 µM)

Q: And the MIC [3]?
A: 100 µg/mL (≈ 122 µM)

Q: What about the MIC [12] of the same molecule?
A: 0.195 µg/mL (≈ 0.237 µM)

Q: And the MIC [4]?
A: 0.37 µg/mL (≈ 0.45 µM)

Q: And the MIC [8]?
A: 0.05 µg/mL (≈ 0.0608 µM)

Q: What about the MIC [5] of the same molecule?
A: 0.62 µg/mL (≈ 0.753 µM)

Q: With C[C@H]1[C@H](C)CC[C@]2(C(=O)O)CC[C@]3(C)C(=CC[C@@H]4[C@@]5(C)CC[C@H](O)C(C)(C)[C@@H]5CC[C@]43C)[C@H]12 [URSOLIC ACID] as the molecule, how does the MIC [13] read?
A: 12.5 µg/mL (≈ 27.4 µM)
